Reference: ChEMBL document CHEMBL1157164, “Computational analysis of the binding affinities of the natural-product cyclopentapeptides argifin and argadin to chitinase B from Serratia marcescens” (Bioorg Med Chem, 2008)
pIC50, pKi: −log10 of the molar value.

What was measured:
[1] = Inhibition of Lucilia cuprina chitinase B
[2] = target: T1, Chitinase B (Serratia marcescens, UniProt P11797); experiment: Binding affinity to Serratia marcescens chitinase B
T1 sequence (P11797 whole entry): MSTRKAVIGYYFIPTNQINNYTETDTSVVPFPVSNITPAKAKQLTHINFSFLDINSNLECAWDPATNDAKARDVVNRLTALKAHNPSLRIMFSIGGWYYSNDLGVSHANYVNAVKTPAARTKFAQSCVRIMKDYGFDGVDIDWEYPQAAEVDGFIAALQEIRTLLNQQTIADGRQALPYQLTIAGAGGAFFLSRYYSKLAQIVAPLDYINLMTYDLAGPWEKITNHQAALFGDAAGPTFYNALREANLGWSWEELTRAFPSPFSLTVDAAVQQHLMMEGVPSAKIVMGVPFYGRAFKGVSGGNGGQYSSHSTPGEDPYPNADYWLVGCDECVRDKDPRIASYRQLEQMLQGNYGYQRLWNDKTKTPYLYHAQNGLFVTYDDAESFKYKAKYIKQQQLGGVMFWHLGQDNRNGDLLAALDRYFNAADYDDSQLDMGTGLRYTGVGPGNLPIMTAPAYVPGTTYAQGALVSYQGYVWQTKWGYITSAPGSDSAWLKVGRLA

Compound | pKi [1] | pIC50 [2]
CC(=O)NC(=N)NCCC[C@@H]1NC(=O)[C@H](CCCC(=O)O)NC(=O)[C@H](Cc2c[nH]cn2)N2C(=O)[C@H](C[C@H]2O)NC(=O)[C@H]2CCCN2C1=O [ARGADIN] | 7.70 | 8.47
CNC(=O)NC(=N)NCCC[C@@H]1NC(=O)[C@@H](C)NC(=O)C[C@@H](C(=O)O)NC(=O)C[C@@H](C(=O)O)NC(=O)[C@H](Cc2ccccc2)N(C)C1=O [ARGIFIN] | 4.48 | 7.00
